Data: US12397037B2, “Methods and compositions for immunomodulation” (CHILDREN'S MEDICAL CENTER CORPORATION, priority 2014, dated 2025)

Tests used:
VEGF = VEGF protein in conditioned media by ELISA, U87MG cells; format: cell-based, human
Text: The VEGF-A (DVE00) ELISA kit was obtained from R&D Systems (Minneapolis, MN). […] Desferrioxamine (DFO) was purchased from Sigma-Aldrich, and the MEK inhibitor (U0126) was purchased from EMD-Millipore (Billerica, MA). pGL4.74 [hRluc/TK] vector (Promega Madison, WI) was used as an internal control in luciferase assay.

VEGF promoter = VEGF promoter luciferase assay in U87MG cells; format: cell-based, human; conditions: DFO 250 μM, 18 hours
Procedure: FIGS. 31A-31B depict U87MG cells transiently co-transfected with a full-length human VEGF promoter luciferase plasmid and a pGL4.74 [hRluc/TK] plasmid as an internal control. Cells were treated with SEMA3F (640 ng/ml for 30 minutes) prior to the addition of DFO (250 μM) or the culture of cells in a hypoxia chamber (1% 02). After 18 hours, VEGF promoter luciferase activity was analyzed. FIG. 31C depicts a graph of U87MG cells transiently cotransfected with our VEGF promoter luciferase and pGL4.74 [hRluc/TK] plasmids and with either a pcDNA3.1 empty vector or our constitutively active Akt (2DAkt). The cells were treated with SEMA3F for 30 minutes prior to the addition of DFO. After 18 hours, VEGF promoter luciferase activity was analyzed. FIG. 31D depicts a graph of parental U87MG cells treated with SEMA3F, rapamycin (10 nM), Torin 1 (10 nM) alone or in combination as indicated for 30 minutes prior to the addition of DFO, and culture supernatants were collected after 18 hours; VEGF protein levels were analyzed by ELISA. In each panel data are representative of 3 independent experiments. Bar graphs represent the mean±SD of n=3 experiments performed in triplicate, *, p<0.01 vs. control.
SEMA3F inhibits hypoxia-induced production of VEGF via the mTOR pathway. The local expression and regulation of VEGF is key to many physiological and pathological processes (40, 41). These findings indicate that SEMA3F can target the transcriptional activation of VEGF via its ability to target mTOR kinase activity (36, 42). To test the effect of SEMA3F on the regulation of VEGF expression, U87MG cells were transfected with a full-length 2.6 kb VEGF promoter-luciferase construct and exposed to the hypoxia mimetic agent desferrioxamine (DFO) or hypoxia (1% 02). […] To test the relative effect of SEMA3F on mTORC1/C2, U87MG cells transiently co-transfected with the 2DAkt construct and the full length VEGF promoter reporter construct, and the cells cultured in the absence or presence of SEMA3F. […] Finally, the effect of SEMA3F on the secretion of VEGF into conditioned media (by ELISA) was determined in the absence or presence of DFO.
Transfection and Luciferase assay: U87MG cells were transiently transfected with plasmid constructs (pcDNA3.1, WT mTOR, 2DAkt, VEGF luciferase reporter plasmid or pGL4.74 [hRluc/TK]) as indicated using Lipofectamine 2000 reagent (Life Technologies) according to the manufacturer's instructions. After 18 hours, cells were treated as outlined in each experimental design. VEGF promoter activity was analyzed using a Dual-Luciferase Reporter Assay System (Promega), and luciferase activity was normalized by Renilla luciferase as an internal control.

[1] = system: glioblastoma cells and EC; conditions: reference 12; cited from earlier work
U87MG cells = assay: Western blot of PI-3K/Akt-mTOR and MAPK signaling in U87MG cells; format: cell-based, human; conditions: U87MG cells
Procedure: U87MG which express NRP-2 were used for this assay.
To determine the effect of SEMA3F on intracellular signaling responses, levels of phosphokinases in the NRP2-expressing human glioblastoma cell line U87MG were profiled.
Western blotting: Proteins within each sample were separated by SDS-PAGE and transferred to nitrocellulose membranes. The membranes were blocked with 4% skimmed milk in TBS-T (0.1% Tween 20 in tris-buffered saline [TBS]) for 30 minutes, followed by incubation with the primary antibody. After washing with TBS-T, membranes were incubated with the appropriate horseradish peroxidase-conjugated secondary antibody, and immunoreactivity was detected by using ECL detection reagents.

[2] = rapamycin alone 10 nM for 90 minutes, vs untreated

## CC(=O)N(O)CCCCCNC(=O)CCC(=O)N(O)CCCCCNC(=O)CCC(=O)N(O)CCCCCN [DFO, desferrioxamine, reference compound]
VEGF; DFO, compared to untreated cells
  increase of VEGF production: 160%
VEGF promoter
  induction of VEGF promoter activity: 16 fold

## Cc1ccc(NC(=O)c2ccc(CN3CCN(C)CC3)cc2)cc1Nc1nccc(-c2cccnc2)n1 [Gleevec, imatinib]
[1]
  SEMA3-mediated loss of stress fiber formation and motility: abrogates SEMA3-mediated loss of stress fiber formation and motility

## CCC(=O)N1CCN(c2ccc(-n3c(=O)ccc4cnc5ccc(-c6cnc7ccccc7c6)cc5c43)cc2C(F)(F)F)CC1 [Torin 1]
VEGF; DFO, compared to SEMA3F or Torin 1 alone
  VEGF levels, combination of SEMA3F and Torin 1: slightly (but significantly p<0.05) inhibited VEGF levels
VEGF; SEMA3F, rapamycin 10 nM or Torin 1 10 nM, 30 minutes prior to DFO, supernatants after 18 hours
  DFO-induced VEGF protein secretion: significantly reduced

## N#CC(=C(/N)Sc1ccccc1N)/C(C#N)=C(\N)Sc1ccccc1N [U0126, reference compound]
U87MG cells; U0126 10 μM 30 minutes prior to SEMA3F 640 ng/ml
  effect of MEK inhibitor on SEMA3F regulation of pAkt: did not modulate

## CO[C@H]1C[C@@H]2CC[C@@H](C)[C@@](O)(O2)C(=O)C(=O)N2CCCC[C@H]2C(=O)O[C@H]([C@H](C)C[C@@H]2CC[C@@H](O)[C@H](OC)C2)CC(=O)[C@H](C)/C=C(\C)[C@@H](O)[C@@H](OC)C(=O)[C@H](C)C[C@H](C)/C=C/C=C/C=C/1C [rapamycin, reference compound]
U87MG cells; [2]
  induction in the level of pAkt (S473): 2.0 fold
  induction in the level of pAkt (T308): 1.9 fold
